Measured values published in patent US20250382273A1 (INSTITUT NATIONAL DE LA SANTE ET DE LA RECHERCHE MEDICALE, priority 2022, published 2025).

system: M. tuberculosis H37Rv_gfp; format: cell-based, Mycobacterium tuberculosis; settings: in combination with pretomanid 20 ng·mL−1; 5 days at 37° C.; […]; read-out: EC50 H37Rv_gfp

With `O=C(Nc1nc2ccc(Oc3ccncc3)cc2s1)[C@@H]1C2C=CC(C2)[C@@H]1C(=O)O` (stereo partly drawn) [Example 24, 3-[[6-(4-pyridyloxy)-1,3-benzothiazol-2-yl]carbamoyl]bicyclo[2.2.1]hept-5-ene-2-carboxylic acid] as the molecule, how does the EC50 read?
Its EC50 is 5000 to 10000 nM.

For `O=C(Nc1nc2ccc(-c3ccccc3C(F)(F)F)cc2s1)[C@@H]1C2C=CC(C2)[C@@H]1C(=O)O` (stereo partly drawn) [Example 57, 3-[6-[[2-(trifluoromethyl)phenyl]-1,3-benzothiazol-2-yl]carbamoyl]bicyclo[2.2.1]hept-5-ene-2-carboxylic acid], which EC50 is on record?
The EC50 was 1000 to 5000 nM.

For `O=C(Nc1nc2ccc(I)cc2s1)[C@@H]1C2C=CC(C2)[C@@H]1C(=O)O` (stereo partly drawn) [Example 49, 3-[(6-iodo-1,3-benzothiazol-2-yl)carbamoyl]bicyclo[2.2.1]hept-5-ene-2-carboxylic acid], which EC50 is on record?
The EC50 was 1000 to 5000 nM.

For `O=C1[C@@H]2[C@H](C(=O)N1c1nc3ccc(Oc4ccc(C(F)(F)F)cc4)cc3s1)[C@@H]1C=C[C@H]2C1` [Example 23, (1R,2S,6R,7S)-4-[6-[4-(trifluoromethyl)phenoxy]-1,3-benzothiazol-2-yl]-4-azatricyclo[5.2.1.02,6]dec-8-ene-3,5-dione], which EC50 is on record?
The EC50 was 1000 to 5000 nM.

Which EC50 does the source give for `O=C(Nc1nc2ccc(Oc3ccc(Br)cn3)cc2s1)[C@@H]1C2C=CC(C2)[C@@H]1C(=O)O` (stereo partly drawn) [Example 37, 3-[[6-[(5-bromo-2-pyridyl)oxy]-1,3-benzothiazol-2-yl]carbamoyl]bicyclo [2.2.1]hept-5-ene-2-carboxylic acid] here?
Its EC50 is 1000 to 5000 nM.

How did the EC50 turn out when `O=C1[C@@H]2C3C=CC(C3)[C@@H]2C(=O)N1c1nc2ccc(-c3ccc(F)nc3)cc2s1` [Example 65, (1R,2S,6R,7S)-4-[6-(6-fluoro-3-pyridyl)-1,3-benzothiazol-2-yl]-4-azatricyclo[5.2.1.02.6]dec-8-ene-3,5-dione] was run?
Its EC50 is 1000 to 5000 nM.

`O=C(Nc1nc2ccc(Nc3cncc(C(F)(F)F)c3)cc2s1)[C@@H]1C2C=CC(C2)[C@@H]1C(=O)O` (stereo partly drawn) [Example 91, 3-[[6-[[5-(trifluoromethyl)-3-pyridyl]amino]-1,3-benzothiazol-2-yl]carbamoyl]bicyclo[2.2.1]hept-5-ene-2-carboxylic acid] was tested. Which EC50 did it give?
Its EC50 is 1000 to 5000 nM.

For `O=C(Nc1nc2ccc(Br)cc2s1)[C@@H]1C2C=CC(C2)[C@@H]1C(=O)O` (stereo partly drawn) [Example 47, 3-[(6-bromo-1,3-benzothiazol-2-yl)carbamoyl]bicyclo[2.2.1]hept-5-ene-2-carboxylic acid], which EC50 is on record?
The EC50 was under 1000 nM.

`C#CCOc1cccc2sc(N3C(=O)[C@@H]4[C@H](C3=O)[C@@H]3C=C[C@H]4C3)nc12` [Example 76, (1R,2S,6R,7S)-4-(4-prop-2-ynoxy-1,3-benzothiazol-2-yl)-4-azatricyclo[5.2.1.02,6]dec-8-ene-3,5-dione] was tested. Which EC50 did it give?
Its EC50 is 10000 to 20000 nM.

`O=C(Nc1nc2ccc(Nc3ccnc(F)c3)cc2s1)[C@@H]1C2C=CC(C2)[C@@H]1C(=O)O` (stereo partly drawn) [Example 99, 3-[[6-[(2-fluoro-4-pyridyl)amino]-1,3-benzothiazol-2-yl]carbamoyl]bicyclo[2.2.1]hept-5-ene-2-carboxylic acid] was tested. Which EC50 did it give?
The EC50 was 5000 to 10000 nM.

Which EC50 does the source give for `O=C(Nc1nc2ccc(C#CC3CC3)cc2s1)[C@@H]1C2C=CC(C2)[C@@H]1C(=O)O` (stereo partly drawn) [Example 79, 3-[[6-(2-cyclopropylethynyl)-1,3-benzothiazol-2-yl]carbamoyl]bicyclo[2.2.1]hept-5-ene-2-carboxylic acid] here?
Its EC50 is under 1000 nM.

`O=C(O)C1C2C=CC(C2)[C@H]1C(=O)Nc1nc2ccc(-c3ccc(C(F)(F)F)nc3)cc2s1` (stereo partly drawn) [Example 66, 3-[[6-[6-(trifluoromethyl)-3-pyridyl]-1,3-benzothiazol-2-yl]carbamoyl]bicyclo [2.2.1]hept-5-ene-2-carboxylic acid] was tested. Which EC50 did it give?
The EC50 was under 1000 nM.

For `COc1cc2nc(NC(=O)[C@@H]3C4C=CC(C4)[C@@H]3C(=O)O)sc2cc1OC` (stereo partly drawn) [Example 9, 3-[(5,6-dimethoxy-1,3-benzothiazol-2-yl)carbamoyl]bicyclo[2.2.1]hept-5-ene-2-carboxylic acid], which EC50 is on record?
Its EC50 is 5000 to 10000 nM.

`CC(C)(C)C#Cc1ccc2nc(NC(=O)[C@@H]3C4C=CC(C4)[C@@H]3C(=O)O)sc2c1` (stereo partly drawn) [Example 78, 3-[[6-(3,3-dimethylbut-1-ynyl)-1,3-benzothiazol-2-yl]carbamoyl]bicyclo [2.2.1]hept-5-ene-2-carboxylic acid] was tested. Which EC50 did it give?
Its EC50 is under 1000 nM.

With `O=C1[C@@H]2[C@H](C(=O)N1c1nc3ccc(Oc4ccccc4)cc3s1)[C@@H]1C=C[C@H]2C1` [Example 19, (1R,2S,6R,7S)-4-(6-phenoxy-1,3-benzothiazol-2-yl)-4-azatricyclo[5.2.1.02,6]dec-8-ene-3,5-dione] as the molecule, how does the EC50 read?
The EC50 was under 1000 nM.

`O=C(Nc1nc2ccc(-c3ccc(Cl)c(Cl)c3)cc2s1)[C@@H]1C2C=CC(C2)[C@@H]1C(=O)O` (stereo partly drawn) [Example 56, 3-[[6-(3,4-dichlorophenyl)-1,3-benzothiazol-2-yl]carbamoyl]bicycle [2.2.1]hept-5-ene-2-carboxylic acid] was tested. Which EC50 did it give?
The EC50 was under 1000 nM.

For `O=C1[C@@H]2[C@H](C(=O)N1c1nc3ccc(-c4ccsc4)cc3s1)[C@@H]1C=C[C@H]2C1` [Example 68, (1R,2S,6R,7S)-4-[6-(3-thienyl)-1,3-benzothiazol-2-yl]-4-azatricyclo[5.2.1.02,6]dec-8-ene-3,5-dione], which EC50 is on record?
Its EC50 is 1000 to 5000 nM.

`O=C1[C@@H]2C3C=CC(C3)[C@@H]2C(=O)N1c1nc2c(O)cccc2s1` [Example 74] was tested. Which EC50 did it give?
The EC50 was under 1000 nM.

Which EC50 does the source give for `Cc1cc(C)c2nc(NC(=O)[C@@H]3C4C=CC(C4)[C@@H]3C(=O)O)sc2c1` (stereo partly drawn) [Example 13, 3-[(4,6-dimethyl-1,3-benzothiazol-2-yl)carbamoyl]bicyclo[2.2.1]hept-5-ene-2-carboxylic acid] here?
Its EC50 is under 1000 nM.

Which EC50 does the source give for `O=C(O)C1C2C=CC(C2)C1C(=O)Nc1nc2ccc([N+](=O)[O-])cc2s1` (stereo not drawn) [Example 38, 3-[(6-nitro-1,3-benzothiazol-2-yl)carbamoyl]bicyclo[2.2.1]hept-5-ene-2-carboxylic acid] here?
The EC50 was 1000 to 5000 nM.

For `C#CCOc1cccc2sc(NC(=O)[C@@H]3C4C=CC(C4)[C@@H]3C(=O)O)nc12` (stereo partly drawn) [Example 75, 3-[(4-prop-2-ynoxy-1,3-benzothiazol-2-yl)carbamoyl]bicyclo[2.2.1]hept-5-ene-2-carboxylic acid], which EC50 is on record?
Its EC50 is under 1000 nM.

For `O=C1[C@@H]2C3C=CC(C3)[C@@H]2C(=O)N1c1nc2ccc(Nc3ccnc(C(F)(F)F)c3)cc2s1` [Example 90, 4-[6-[[2-(trifluoromethyl)-4-pyridyl]amino]-1,3-benzothiazol-2-yl]-4-azatricyclo[5.2.1.02,6]dec-8-ene-3,5-dione], which EC50 is on record?
The EC50 was under 1000 nM.

For `N#Cc1ccnc(Oc2ccc3nc(N4C(=O)[C@@H]5[C@H](C4=O)[C@@H]4C=C[C@H]5C4)sc3c2)c1` [Example 31, 2-[[2-[(1R,2S,6R,7S)-3,5-dioxo-4-azatricyclo[5.2.1.02,6]dec-8-en-4-yl]-1,3-benzothiazol-6-yl]oxy]pyridine-4-carbonitrile], which EC50 is on record?
Its EC50 is 1000 to 5000 nM.

For `O=C1[C@@H]2[C@H](C(=O)N1c1nc3ccc(-c4ccc(C(F)(F)F)cc4)cc3s1)[C@@H]1C=C[C@H]2C1` [Example 61, (1R,2S,6R,7S)-4-[6-[4-(trifluoromethyl)phenyl]-1,3-benzothiazol-2-yl]-4-azatricyclo[5.2.1.02,6]dec-8-ene-3,5-dione], which EC50 is on record?
The EC50 was under 1000 nM.

For `C#CCOc1ccc2nc(N3C(=O)[C@@H]4[C@H](C3=O)[C@@H]3C=C[C@H]4C3)sc2c1` [Example 73, (1R,2S,6R,7S)-4-(6-prop-2-ynoxy-1,3-benzothiazol-2-yl)-4-azatricyclo[5.2.1.02,6]dec-8-ene-3,5-dione], which EC50 is on record?
The EC50 was under 1000 nM.

Which EC50 does the source give for `Cc1ccc2sc(NC(=O)[C@@H]3C4C=CC(C4)[C@@H]3C(=O)O)nc2c1C` (stereo partly drawn) [Example 15, 3-[(4,5-dimethyl-1,3-benzothiazol-2-yl)carbamoyl]bicyclo[2.2.1]hept-5-ene-2-carboxylic acid] here?
Its EC50 is under 1000 nM.

With `O=C(Nc1nc2ccc(-c3cccc(C(F)(F)F)c3)cc2s1)[C@@H]1C2C=CC(C2)[C@@H]1C(=O)O` (stereo partly drawn) [Example 59, 3-[[6-[3-(trifluoromethyl)phenyl]-1,3-benzothiazol-2-yl]carbamoyl]bicyclo[2.2.1]hept-5-ene-2-carboxylic acid] as the molecule, how does the EC50 read?
Its EC50 is under 1000 nM.

For `O=C(Nc1nc2ccc(Nc3cccc(F)n3)cc2s1)[C@@H]1C2C=CC(C2)[C@@H]1C(=O)O` (stereo partly drawn) [Example 88, 3-[[6-[(6-fluoro-2-pyridyl)amino]-1,3-benzothiazol-2-yl]carbamoyl]bicyclo[2.2.1]hept-5-ene-2-carboxylic acid], which EC50 is on record?
The EC50 was under 1000 nM.

With `COc1ccc2nc(NC(=O)[C@@H]3C4C=CC(C4)[C@@H]3C(=O)O)sc2c1` (stereo partly drawn) [Example 6, 3-[(6-methoxy-1,3-benzothiazol-2-yl)carbamoyl]bicyclo[2.2.1]hept-5-ene-2-carboxylic acid] as the molecule, how does the EC50 read?
Its EC50 is 1000 to 5000 nM.

For `Cc1cc2nc(NC(=O)[C@@H]3C4C=CC(C4)[C@@H]3C(=O)O)sc2cc1C` (stereo partly drawn) [Example 14, 3-[(5,6-dimethyl-1,3-benzothiazol-2-yl)carbamoyl]bicyclo[2.2.1]hept-5-ene-2-carboxylic acid], which EC50 is on record?
The EC50 was under 1000 nM.

Which EC50 does the source give for `O=C1[C@@H]2[C@H](C(=O)N1c1nc3ccc(-c4ccoc4)cc3s1)[C@@H]1C=C[C@H]2C1` [Example 70, (1R,2S,6R,7S)-4-[6-(3-furyl)-1,3-benzothiazol-2-yl]-4-azatricyclo[5.2.1.02,6]dec-8-ene-3,5-dione] here?
Its EC50 is 1000 to 5000 nM.

With `Cc1ccc2nc(NC(=O)[C@@H]3C4CCC(C4)[C@@H]3C(=O)O)sc2c1` (stereo in doubt) [Example 3, 3-[(6-methyl-1,3-benzothiazol-2-yl)carbamoyl]norbornane-2-carboxylic acid] as the molecule, how does the EC50 read?
The EC50 was 1000 to 5000 nM.

same assay, conditions: in combination with pretomanid, unit inferred; read-out: average EC50 H37Rv_gfp

With `CC(C)(C)C#Cc1ccc2nc(NC(=O)[C@@H]3C4C=CC(C4)[C@@H]3C(=O)O)sc2c1` (stereo partly drawn) [Example 78, 3-[[6-(3,3-dimethylbut-1-ynyl)-1,3-benzothiazol-2-yl]carbamoyl]bicyclo [2.2.1]hept-5-ene-2-carboxylic acid] as the molecule, how does the EC50 read?
The EC50 was 130 nM.

same assay, conditions: read-out: EC50 H37Rv_gfp

For `O=C1[C@@H]2[C@H](C(=O)N1c1nc3ccc(-c4ccc(O)cc4)cc3s1)[C@@H]1C=C[C@H]2C1` [Example 63, (1R,2S,6R,7S)-4-[6-(4-hydroxyphenyl)-1,3-benzothiazol-2-yl]-4-azatricyclo[5.2.1.02,6]dec-8-ene-3,5-dione], which EC50 is on record?
The EC50 was 5000 to 10000 nM.

For `O=C1[C@@H]2C3C=CC(C3)[C@@H]2C(=O)N1c1nc2ccc(Nc3ccnc(F)c3)cc2s1` [Example 98, 4-[6-[(2-fluoro-4-pyridyl)amino]-1,3-benzothiazol-2-yl]-4-azatricyclo[5.2.1.02,6]dec-8-ene-3,5-dione], which EC50 is on record?
Its EC50 is 5000 to 10000 nM.

How did the EC50 turn out when `N#Cc1ccc2nc(NC(=O)[C@@H]3C4C=CC(C4)[C@@H]3C(=O)O)sc2c1` (stereo partly drawn) [Example 40, 3-[(6-cyano-1,3-benzothiazol-2-yl)carbamoyl]bicyclo[2.2.1]hept-5-ene-2-carboxylic acid] was run?
The EC50 was 1000 to 5000 nM.
